In series [1] the test system is S. aureus MRSA ATCC 43300. Particulars: for Minimal inhibitory concentration (MIC): ATCC 43300; for antimicrobial activity compared to wild type hegrisin (in words): S. aureus MRSA ATCC 43300.
A further series has as its system human erythrocytes. Kind of series: hemolytic assay. The format is cell-based. To be noted: FIG. 2; for cell lysis (hemolysis) of human erythrocytes: peptide 0.5-500 μg/ml, 37° C., 60 minutes. The protocol: For the hemolysis assays, human erythrocytes were obtained from healthy donors, washed 3 times using sterilized PBS and re-suspended to a concentration of 2% (v/v) with PBS. The hegrisin, HCN2016-01 peptide, and plectasin (control) were diluted to concentrations of 500, 250, 125, 62.5, 32, 16, 8, 4, 2, 1, and 0.5 μg/ml. A 100 μL solution of each peptide and a 100 μL suspension of red blood cells were mixed and added to the wells of a 96-well plate. PBS was used as negative control and Triton X-100 was used as a positive control.
The samples were incubated at 37° C. for 60 minutes and gently stirred during the incubation period. Then, the samples were centrifuged at 2000 rpm for 5 minutes. A total of 100 μL of the supernatant in each well was transferred to a new 96-well plate and absorbance was measured at 490 nm using a microplate reader (Molecular Devices, USA).
For hemolysis assays, human erythrocytes were obtained from healthy donors, washed 3 times using sterilized PBS, and re-suspended to a concentration of 2% (v/v) with PBS. The HCN2016-01 peptide (SEQ ID NO: 2) and plectasin (control) were diluted to concentrations of 500; 250; 125; 62.5; 32; 16; 8; 4; 2; 1; and 0.5 μg/ml. A 100 μL of each peptide solution was mixed with a 100 μL solution of a red blood cell suspension and added to separate wells of a 96-well plate. PBS was used as negative control and Triton X-100 was used as a positive control. The samples were incubated at 37° C. for 60 minutes and gently stirred during the incubation period. The samples were then centrifuged at 2000 rpm for 5 minutes. A total of 100 μL of the supernatant in each well was transferred to a new 96-well plate and absorbance was measured at 490 nm using a microplate reader (Molecular Devices, USA).

Series [2] relates to S. aureus ATCC 6538. Briefly: inhibition zone assay. Particulars: 10 μg peptide per hole, 37° C., 16-18 hours.
Series [3] relates to S. epidermidis ATCC 14990. Particulars: for Minimal inhibitory concentration (MIC): ATCC 14990.
Series [4] concerns S. aureus ATCC 6538. Particulars: for Minimal inhibitory concentration (MIC): ATCC 6538; for antimicrobial activity compared to wild type hegrisin (in words): S. aureus ATCC 6538, lower MIC values.

The results in this text go back to US11279737B2, “Antimicrobial peptide variants and uses thereof” (ANTINBIO, INC., priority 2019, dated 2022).

Values after ≈ are worked out from the molar mass of the structure shown. Where a SMILES comes first, the peptide text is derived from it. Bridges are numbered along the chain shown (N, C = ends).

In the case of `CC[C@H](C)[C@@H]1NC(=O)[C@H](CO)NC(=O)[C@H](CCCCN)NC(=O)[C@@H]2CSSC[C@@H](C(=O)N[C@@H](Cc3ccc(O)cc3)C(=O)O)NC(=O)[C@H](CCCCN)NC(=O)[C@@H]3CSSC[C@H](NC(=O)[C@@H]4CCCN4C(=O)[C@H](CCCCN)NC(=O)[C@H](CC(=O)O)NC(=O)[C@H](CC(N)=O)NC(=O)CNC(=O)CNC(=O)[C@H](Cc4c[nH]c5ccccc45)NC(=O)[C@H]([C@@H](C)CC)NC(=O)[C@H]([C@@H](C)O)NC(=O)[C@@H](NC(=O)CNC(=O)[C@H](Cc4ccccc4)NC(=O)CN)CSSC[C@H](NC(=O)[C@H](Cc4ccc(O)cc4)NC(=O)CNC(=O)CNC(=O)[C@H](CCCCN)NC(=O)[C@H](Cc4ccc(O)cc4)NC(=O)CNC(=O)[C@H](CCCCN)NC1=O)C(=O)N[C@@H](CCCCN)C(=O)N[C@@H](C(C)C)C(=O)NCC(=O)NCC(=O)N[C@@H](C(C)C)C(=O)N3)C(=O)N[C@@H](Cc1c[nH]cn1)C(=O)N[C@@H](CCCNC(=N)N)C(=O)N[C@@H](Cc1c[nH]cn1)C(=O)N2` [Hegrisin, reference compound] (H-GFGCTIWGGNDKPCHRHCKSIKGYKGGYCKVGGVCKCY-OH; disulfide 4-29, 14-35, 18-37; N-terminus and C-terminus assumed), the entries for the “Minimal inhibitory concentration (MIC)” value (in series [1]; in series [3]; in the series with S. aureus ATCC 6538 [4]) were 1.34 µg/mL (≈ 0.326 µM), 0.38 µg/mL (≈ 0.0926 µM) and 1.67 µg/mL (≈ 0.407 µM), respectively. For the same molecule, the “cell lysis (hemolysis) of human erythrocytes” value with human erythrocytes is on record as “no significant lysis”. Also, the “Activity (antimicrobial activity relative to unmodified hegrisin, zones of growth inhibition)” value in the series with S. aureus ATCC 6538 [2] is given as 1.
In the case of `CC[C@H](C)[C@@H]1NC(=O)CNC(=O)CNC(=O)[C@H](CC(C)C)NC(=O)[C@H](CCCCN)NC(=O)[C@@H]2CSSC[C@H](NC(=O)[C@H](CO)NC(=O)[C@H](Cc3c[nH]c4ccccc34)NC(=O)CN)C(=O)NCC(=O)N[C@@H](Cc3ccccc3)C(=O)N[C@@H](Cc3ccccc3)C(=O)NCC(=O)NCC(=O)N[C@@H](CC(N)=O)C(=O)N[C@@H](CC(=O)O)C(=O)N[C@@H](CCC(=O)O)C(=O)N3CCC[C@H]3C(=O)N[C@H]3CSSC[C@H](NC1=O)C(=O)N[C@@H](CCCCN)C(=O)N[C@H](C(=O)N[C@@H](Cc1ccc(O)cc1)C(=O)O)CSSC[C@H](NC(=O)[C@H](Cc1c[nH]cn1)NC(=O)[C@H](CCC(N)=O)NC(=O)[C@H](Cc1c[nH]cn1)NC3=O)C(=O)N[C@@H](CCCCN)C(=O)N[C@@H](CO)C(=O)N[C@@H]([C@@H](C)CC)C(=O)N[C@@H](CCCNC(=N)N)C(=O)NCC(=O)N[C@@H](Cc1ccc(O)cc1)C(=O)N[C@@H](CCCNC(=N)N)C(=O)NCC(=O)NCC(=O)N[C@@H](Cc1ccc(O)cc1)C(=O)N2` [HCN2016-04] (H-GWSCGFFGGNDEPCHQHCKSIRGYRGGYCKLGGICKCY-OH; disulfide 4-29, 14-35, 18-37 (inferred); N-terminus and C-terminus assumed), the “Minimal inhibitory concentration (MIC)” value in series [1] came out at 0.86 µg/mL (≈ 0.206 µM); in series [3], 0.33 µg/mL (≈ 0.0789 µM); in the series with S. aureus ATCC 6538 [4] it was 0.40 µg/mL (≈ 0.0956 µM). For the same molecule, the “antimicrobial activity compared to wild type hegrisin (in words)” value (in series [1]; in series [3] (S. epidermidis ATCC 14990); in the series on S. aureus ATCC 6538 [4]) was “improved antimicrobial activity” throughout. The “Activity (antimicrobial activity relative to unmodified hegrisin, zones of growth inhibition)” value in the series with S. aureus ATCC 6538 [2] worked out at 2.
As for `CC[C@H](C)[C@@H]1NC(=O)CNC(=O)CNC(=O)[C@H](Cc2ccccc2)NC(=O)[C@H](CCCCN)NC(=O)[C@@H]2CSSC[C@H](NC(=O)CNC(=O)[C@H](Cc3c[nH]c4ccccc34)NC(=O)CN)C(=O)NCC(=O)N[C@@H](Cc3ccccc3)C(=O)N[C@@H](Cc3ccccc3)C(=O)NCC(=O)NCC(=O)N[C@@H](CC(N)=O)C(=O)N[C@@H](CC(=O)O)C(=O)N[C@@H](CCC(=O)O)C(=O)N3CCC[C@H]3C(=O)N[C@H]3CSSC[C@H](NC1=O)C(=O)N[C@@H](CCCCN)C(=O)N[C@H](C(=O)N[C@@H](Cc1ccc(O)cc1)C(=O)O)CSSC[C@H](NC(=O)[C@H](Cc1c[nH]cn1)NC(=O)[C@H](CCC(N)=O)NC(=O)[C@H](Cc1c[nH]cn1)NC3=O)C(=O)N[C@@H](CCCCN)C(=O)N[C@@H](CO)C(=O)N[C@@H]([C@@H](C)CC)C(=O)N[C@@H](CCCNC(=N)N)C(=O)NCC(=O)N[C@@H](Cc1ccc(O)cc1)C(=O)N[C@@H](CCCNC(=N)N)C(=O)NCC(=O)NCC(=O)N[C@@H](Cc1ccc(O)cc1)C(=O)N2` [HCN2016-05] (H-GWGCGFFGGNDEPCHQHCKSIRGYRGGYCKFGGICKCY-OH; disulfide 4-29, 14-35, 18-37 (inferred); N-terminus and C-terminus assumed), the results for the “Minimal inhibitory concentration (MIC)” value (in series [1]; in series [3]; in the series on S. aureus ATCC 6538 [4]) were 2.88 µg/mL (≈ 0.688 µM), 2.80 µg/mL (≈ 0.669 µM) and 1.44 µg/mL (≈ 0.344 µM), respectively. Further, in the series with S. aureus ATCC 6538 [2], the “Activity (antimicrobial activity relative to unmodified hegrisin, zones of growth inhibition)” value came out at 2. Besides, the “antimicrobial activity compared to wild type hegrisin (in words)” value in the series with S. aureus ATCC 6538 [4] was “improved antimicrobial activity”.
As for `CC[C@H](C)[C@@H]1NC(=O)CNC(=O)CNC(=O)[C@H](Cc2ccccc2)NC(=O)[C@H](CCCCN)NC(=O)[C@@H]2CSSC[C@H](NC(=O)[C@H](CO)NC(=O)[C@H](Cc3c[nH]c4ccccc34)NC(=O)CN)C(=O)N[C@@H](CC(N)=O)C(=O)N[C@@H]([C@@H](C)CC)C(=O)N[C@@H](Cc3c[nH]c4ccccc34)C(=O)NCC(=O)NCC(=O)N[C@@H](CC(N)=O)C(=O)N[C@@H](CC(=O)O)C(=O)N[C@@H](CCC(=O)O)C(=O)N3CCC[C@H]3C(=O)N[C@H]3CSSC[C@H](NC1=O)C(=O)N[C@@H](CCCCN)C(=O)N[C@H](C(=O)N[C@@H](Cc1ccc(O)cc1)C(=O)O)CSSC[C@H](NC(=O)[C@H](Cc1c[nH]cn1)NC(=O)[C@H](CCC(N)=O)NC(=O)[C@H](Cc1c[nH]cn1)NC3=O)C(=O)N[C@@H](CCCCN)C(=O)N[C@@H](CO)C(=O)N[C@@H]([C@@H](C)CC)C(=O)N[C@@H](CCCNC(=N)N)C(=O)NCC(=O)N[C@@H](Cc1ccc(O)cc1)C(=O)N[C@@H](CCCNC(=N)N)C(=O)NCC(=O)NCC(=O)N[C@@H](Cc1ccc(O)cc1)C(=O)N2` [HCN2016-02] (H-GWSCNIWGGNDEPCHQHCKSIRGYRGGYCKFGGICKCY-OH; disulfide 4-29, 14-35, 18-37 (inferred); N-terminus and C-terminus assumed), the “Minimal inhibitory concentration (MIC)” value amounted to 2.80 µg/mL (≈ 0.654 µM) in series [1], 1.40 µg/mL (≈ 0.327 µM) in series [3] and 1.40 µg/mL (≈ 0.327 µM) with S. aureus ATCC 6538 [4]. For the same molecule, the “Activity (antimicrobial activity relative to unmodified hegrisin, zones of growth inhibition)” value in the series on S. aureus ATCC 6538 [2] is given as 2. The “antimicrobial activity compared to wild type hegrisin (in words)” value with S. aureus ATCC 6538 [4] is “improved antimicrobial activity”.
“plectasin: defensin antimicrobial peptide isolated from the mushroom Pseudoplectania nigrella; control in the hemolysis assay (GFGCNGPWDEDDMQCHNHCKSIKGYKGGYCAKGGFVCKCY; PLECTASIN)”: the “change of cell lysis with rising concentration” value in the series with human erythrocytes (concentration increased from 62.5 μg/ml to 500 μg/ml) is recorded as “increased significantly”. In the series on human erythrocytes, the “cell lysis (hemolysis) of human erythrocytes” value was “lysis at nearly all concentrations”.
With `CC[C@H](C)[C@@H]1NC(=O)[C@H](CO)NC(=O)[C@H](CCCCN)NC(=O)[C@@H]2CSSC[C@@H](C(=O)N[C@@H](Cc3ccc(O)cc3)C(=O)O)NC(=O)[C@H](CCCCN)NC(=O)[C@@H]3CSSC[C@H](NC(=O)[C@@H]4CCCN4C(=O)[C@H](CCCCN)NC(=O)[C@H](CC(=O)O)NC(=O)[C@H](CC(N)=O)NC(=O)CNC(=O)CNC(=O)[C@H](Cc4ccccc4)NC(=O)[C@H]([C@@H](C)CC)NC(=O)[C@H]([C@@H](C)O)NC(=O)[C@@H](NC(=O)CNC(=O)[C@H](Cc4ccccc4)NC(=O)CN)CSSC[C@H](NC(=O)[C@H](Cc4ccc(O)cc4)NC(=O)CNC(=O)CNC(=O)[C@H](CCCCN)NC(=O)[C@H](Cc4ccc(O)cc4)NC(=O)CNC(=O)[C@H](CCCCN)NC1=O)C(=O)N[C@@H](CCCCN)C(=O)N[C@@H](C(C)C)C(=O)NCC(=O)NCC(=O)N[C@@H](C(C)C)C(=O)N3)C(=O)N[C@@H](Cc1c[nH]cn1)C(=O)N[C@@H](CCCNC(=N)N)C(=O)N[C@@H](Cc1c[nH]cn1)C(=O)N2` [HCN2016-03] (H-GFGCTIFGGNDKPCHRHCKSIKGYKGGYCKVGGVCKCY-OH; disulfide 4-29, 14-35, 18-37 (inferred); N-terminus and C-terminus assumed), the figures for the “Minimal inhibitory concentration (MIC)” value (in series [1]; in series [3]; in the series on S. aureus ATCC 6538 [4]) were 0.81 µg/mL (≈ 0.199 µM), 1.30 µg/mL (≈ 0.32 µM) and 1.33 µg/mL (≈ 0.327 µM), respectively. For the same molecule, the “antimicrobial activity compared to wild type hegrisin (in words)” value (in series [1]; in the series on S. aureus ATCC 6538 [4]) was “improved antimicrobial activity” each time. Further, the “Activity (antimicrobial activity relative to unmodified hegrisin, zones of growth inhibition)” value in the series on S. aureus ATCC 6538 [2] was found to be 2.
